Assay results: patent US20040110825A1, “Method for treating sepsis” (priority 2003, published 2004)

What was measured:
[1] = tested on: patients with severe sepsis; assay: Phase 2 multicenter, double-blind, placebo-controlled trial: 28-day all-cause mortality; type: in vivo, human; details: for effect on mortality compared to placebo: administration started within 24 hours after first organ failure, continued up to 7 days
Experimental: FIG. 3 represents a plot of 28-day mortality by treatment (Y-axis) against time after first organ failure at which a sPLA2 inhibitor compound of formula I was administered (X-axis). […] Administration of a “high dose” of sPLA2 inhibitor compound of formula (I), at the same time frame (i.e., less than 12 hours after first organ failure) was associated with a mortality of 5.4% (bar 3). […] The efficacy of a sPLA2 inhibitor administered at 0-24 hours, preferably 0-12 hours, after first organ failure is particularly significant when a “high dose” sPLA2 inhibitor compound is administered.
The data were analyzed using the Cochran-Mantel-Haenszel test adjusted for the trial primary stratification factors at a two-sided 5% significance level. The overall treatment effect as well as for pair-wise comparisons were analyzed.
Study participants were included in the study if they met all of the criteria listed below. It is anticipated that almost all patients meeting these criteria would have been in an acute care area of the hospital such as an intensive care unit, step-down unit, emergency ward, or recovery room. The events satisfying these inclusion criteria must have been attributable to the onset of sepsis and not attributable to an underlying disease process or to the effects of concomitant therapy.
[3] Have had at least one of the following sepsis-induced organ failures within the 24-hour time period immediately preceding entry into the study:
The mortality data from the study are shown in diagrams 1 through 3.

Compound: NC(=O)C1CCCc2c1c1cc(OCCCC(=O)O)ccc1n2Cc1ccccc1 (stereo not shown)
- melting point: 199 to 200 °C

Compound: CCc1cc2c(cc1OCCCP(=O)(O)O)c1c(n2Cc2ccccc2)CCCC1C(N)=O (stereo not shown)
- melting point: 235 to 238 °C (dec.)

Compound: COc1cc(OC)c2c3c(n(Cc4ccccc4)c2c1)CCCC3C(=O)NN (stereo not shown)
- melting point: 189 to 190 °C

Compound: COc1ccc2c(c1)c1c(n2Cc2ccccc2)CCCC1C(N)=O (stereo not shown)
- melting point: 154 to 156 °C

Compound: CCc1c(C(=O)C(N)=O)c2c(OCC(=O)O)cccc2n1Cc1ccccc1 [compound (Vb)]
- effect on mortality compared to placebo [1]: significant reduction in mortality
- effect on mortality compared to placebo ([1]; listed as LY315920): statistically significant reduction in mortality
- 28 day mortality by treatment ([1]; high dose (target 800 ng/mL), administered between 12 and 24 hours after first organ failure, FIG. 3 bar 6, placebo 35.1%): 31.5%
- 28 day mortality by treatment ([1]; high dose (target plasma concentration 800 ng/mL), administered less than 12 hours after first organ failure, FIG. 3 bar 3, placebo 42.9%): 5.4%
- 28 day mortality by treatment ([1]; low dose (target 200 ng/mL), administered between 12 and 24 hours after first organ failure, FIG. 3 bar 5, placebo 35.1%): 38.2%
- 28 day mortality by treatment ([1]; low dose (target plasma concentration 200 ng/mL), administered less than 12 hours after first organ failure, FIG. 3 bar 2, placebo 42.9%): 19.2%
- reduction in mortality, significance ([1]; low dose and high dose administered at 0-12 hours after first organ failure, Cochran-Mantel-Haenszel test, two-sided 5%): statistically significant

Compound: NC(=O)C1CCCc2c1c1cc(OCCCP(=O)(O)O)ccc1n2Cc1ccccc1 (stereo not shown)
- melting point: 200 to 201 °C

Compound: CCCCCCCCc1cc2c(cc1OCCCP(=O)(O)O)c1c(n2Cc2ccccc2)CCCC1C(N)=O (stereo not shown)
- melting point: 160 to 162 °C
